Reference: ChEMBL document CHEMBL4699517 (Bioorg Med Chem Lett, 2020)
Activity calls are given as the source filed them. The rule behind the calls is not given here.

Tests used:
Format in all cases: cell-based
[1] = molecular target: Phosphatidylinositol 4,5-bisphosphate 3-kinase catalytic subunit gamma isoform (Homo sapiens) (UniProt P48736); experiment: Inhibition of PI3Kgamma in human Raji cells assessed as inhibition of cell viability at 100 nM after 72 hrs by CellTiter-Glo luminescence assay
[2] = molecular target: Phosphatidylinositol 4,5-bisphosphate 3-kinase catalytic subunit gamma isoform (Homo sapiens) (UniProt P48736); experiment: Inhibition of PI3Kgamma in human RPMI-8226 cells assessed as inhibition of cell viability at 100 nM after 72 hrs by CellTiter-Glo luminescent assay
[3] = molecular target: Phosphatidylinositol 4,5-bisphosphate 3-kinase catalytic subunit gamma isoform (Homo sapiens) (UniProt P48736); experiment: Inhibition of PI3Kgamma in human MOLT-4 cells assessed as inhibition of cell viability at 100 nM after 72 hrs by CellTiter-Glo luminescent assay
[4] = molecular target: Phosphatidylinositol 4,5-bisphosphate 3-kinase catalytic subunit gamma isoform (Homo sapiens) (UniProt P48736); experiment: Inhibition of PI3Kgamma in human SUDHL-6 cells assessed as inhibition of cell viability at 100 nM after 72 hrs by CellTiter-Glo luminescent assay; settings: SU-DHL-6
[5] = molecular target: Phosphatidylinositol 4,5-bisphosphate 3-kinase catalytic subunit gamma isoform (Homo sapiens) (UniProt P48736); experiment: Inhibition of PI3Kgamma in human LCL-1 cells assessed as inhibition of cell viability at 100 nM after 72 hrs by CellTiter-Glo luminescent assay
[6] = molecular target: Phosphatidylinositol 4,5-bisphosphate 3-kinase catalytic subunit gamma isoform (Homo sapiens) (UniProt P48736); experiment: Inhibition of PI3Kgamma in human SUDHL-10 cells assessed as inhibition of cell viability at 100 nM after 72 hrs by CellTiter-Glo luminescent assay; settings: SU-DHL-10

Chain of Phosphatidylinositol 4,5-bisphosphate 3-kinase catalytic subunit gamma isoform (Homo sapiens) (P48736 whole entry, looked up, canonical isoform): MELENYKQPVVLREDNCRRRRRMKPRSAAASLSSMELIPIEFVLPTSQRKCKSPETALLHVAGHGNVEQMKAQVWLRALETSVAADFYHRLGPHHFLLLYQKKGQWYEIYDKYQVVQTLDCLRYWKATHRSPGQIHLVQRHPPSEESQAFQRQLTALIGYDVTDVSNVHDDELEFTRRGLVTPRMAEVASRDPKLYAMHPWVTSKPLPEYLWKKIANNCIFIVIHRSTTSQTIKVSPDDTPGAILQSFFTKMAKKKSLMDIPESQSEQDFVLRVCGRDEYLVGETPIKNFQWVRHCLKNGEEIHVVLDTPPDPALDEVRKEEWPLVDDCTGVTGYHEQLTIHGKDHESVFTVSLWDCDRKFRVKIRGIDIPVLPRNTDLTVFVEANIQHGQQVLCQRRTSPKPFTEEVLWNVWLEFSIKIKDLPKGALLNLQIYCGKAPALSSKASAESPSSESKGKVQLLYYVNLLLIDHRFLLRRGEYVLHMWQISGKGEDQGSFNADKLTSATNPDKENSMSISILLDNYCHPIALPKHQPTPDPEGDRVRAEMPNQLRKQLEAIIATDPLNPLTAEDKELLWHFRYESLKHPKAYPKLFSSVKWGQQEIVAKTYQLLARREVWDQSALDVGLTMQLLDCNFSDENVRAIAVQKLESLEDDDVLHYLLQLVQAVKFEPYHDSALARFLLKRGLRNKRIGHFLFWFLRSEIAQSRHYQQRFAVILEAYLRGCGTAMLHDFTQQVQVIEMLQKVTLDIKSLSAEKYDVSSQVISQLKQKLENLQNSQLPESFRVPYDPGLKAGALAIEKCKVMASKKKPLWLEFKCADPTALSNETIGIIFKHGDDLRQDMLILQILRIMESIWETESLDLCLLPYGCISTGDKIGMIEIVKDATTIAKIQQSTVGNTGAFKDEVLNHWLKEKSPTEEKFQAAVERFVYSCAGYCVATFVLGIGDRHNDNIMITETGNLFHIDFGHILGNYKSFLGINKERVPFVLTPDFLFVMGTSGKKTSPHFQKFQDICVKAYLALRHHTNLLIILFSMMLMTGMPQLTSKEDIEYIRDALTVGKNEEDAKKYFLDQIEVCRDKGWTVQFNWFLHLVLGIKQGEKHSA

SMILES	inhibition [1]	inhibition [2]	inhibition [3]	inhibition [4]	inhibition [5]	inhibition [6]
COC(=O)[C@@]12OC[C@]34[C@H]([C@@H](O)[C@@H]1O)[C@@]1(C)CC(=O)C(OC(=O)[C@@H]5CCCN5C(=O)OC(C)(C)C)=C(C)[C@@H]1C[C@H]3OC(=O)[C@H](OC(=O)C=C(C)C)[C@@H]24	Active					
COC(=O)[C@@]12OC[C@]34[C@H]([C@@H](O)[C@@H]1O)[C@@]1(C)CC(=O)C(OC(=O)[C@@H]5CCCN5)=C(C)[C@@H]1C[C@H]3OC(=O)[C@H](OC(=O)C=C(C)C)[C@@H]24	Active					
COC(=O)[C@@]12OC[C@]34[C@H]([C@@H](O)[C@@H]1O)[C@@]1(C)CC(=O)C(OC(=O)CNC(=O)CN)=C(C)[C@@H]1C[C@H]3OC(=O)[C@H](OC(=O)C=C(C)C)[C@@H]24	Active	Active	Active	Active	Active	Active
COC(=O)[C@@]12OC[C@]34[C@H]([C@@H](O)[C@@H]1O)[C@@]1(C)CC(=O)C(OCC(=O)NCCN)=C(C)[C@@H]1C[C@H]3OC(=O)[C@H](OC(=O)C=C(C)C)[C@@H]24	Active	Active	Active	Active	Active	Active
COC(=O)COC1=C(C)[C@@H]2C[C@H]3OC(=O)[C@H](OC(=O)C=C(C)C)[C@H]4[C@]5(C(=O)OC)OC[C@]34[C@H]([C@@H](O)[C@@H]5O)[C@@]2(C)CC1=O	inactive					
COC(=O)[C@@]12OC[C@]34[C@H]([C@@H](O)[C@@H]1O)[C@@]1(C)CC(=O)C(OCC(N)=O)=C(C)[C@@H]1C[C@H]3OC(=O)[C@H](OC(=O)C=C(C)C)[C@@H]24	inactive					
COC(=O)[C@@]12OC[C@]34[C@H]([C@@H](O)[C@@H]1O)[C@@]1(C)CC(=O)C(OC(=O)[C@H](C)NC(=O)[C@H](C)N)=C(C)[C@@H]1C[C@H]3OC(=O)[C@H](OC(=O)C=C(C)C)[C@@H]24	inactive	inactive	inactive	inactive	inactive	inactive
COC(=O)[C@@]12OC[C@]34[C@H]([C@@H](O)[C@@H]1O)[C@@]1(C)CC(=O)C(OCC(=O)NC(Cc5ccccc5)C(=O)O)=C(C)[C@@H]1C[C@H]3OC(=O)[C@H](OC(=O)C=C(C)C)[C@@H]24 (some centres undefined)	inactive					
COC(=O)[C@@]12OC[C@]34[C@H]([C@@H](O)[C@@H]1O)[C@@]1(C)CC(=O)C(OCC(=O)NCCC(=O)O)=C(C)[C@@H]1C[C@H]3OC(=O)[C@H](OC(=O)C=C(C)C)[C@@H]24	inactive					
CC[C@H](C)[C@H](N)C(=O)OC1=C(C)[C@@H]2C[C@H]3OC(=O)[C@H](OC(=O)C=C(C)C)[C@H]4[C@]5(C(=O)OC)OC[C@]34[C@H]([C@@H](O)[C@@H]5O)[C@@]2(C)CC1=O	Active					
COC(=O)[C@@]12OC[C@]34[C@H]([C@@H](O)[C@@H]1O)[C@@]1(C)CC(=O)C(OC(=O)C[C@H](C)NC(C)=O)=C(C)[C@@H]1C[C@H]3OC(=O)[C@H](OC(=O)C=C(C)C)[C@@H]24	Active	Active	Active	Active	Active	Active
COC(=O)[C@@]12OC[C@]34[C@H]([C@@H](O)[C@@H]1O)[C@@]1(C)CC(=O)C(OC(=O)C[C@@H](C)N)=C(C)[C@@H]1C[C@H]3OC(=O)[C@H](OC(=O)C=C(C)C)[C@@H]24	Active	Active	Active	Active	Active	Active
COC(=O)[C@@]12OC[C@]34[C@H]([C@@H](O)[C@@H]1O)[C@@]1(C)CC(=O)C(OC(=O)C[C@H](C)NC(=O)C[C@H](C)N)=C(C)[C@@H]1C[C@H]3OC(=O)[C@H](OC(=O)C=C(C)C)[C@@H]24	Active	Active	Active	Active	Active	Active
COC(=O)[C@@]12OC[C@]34[C@H]([C@@H](O)[C@@H]1O)[C@@]1(C)CC(=O)C(OCC(=O)C(C)(C)C)=C(C)[C@@H]1C[C@H]3OC(=O)[C@H](OC(=O)C=C(C)C)[C@@H]24	inactive					
CC[C@H](C)[C@H](NC(=O)OC(C)(C)C)C(=O)OC1=C(C)[C@@H]2C[C@H]3OC(=O)[C@H](OC(=O)C=C(C)C)[C@H]4[C@]5(C(=O)OC)OC[C@]34[C@H]([C@@H](O)[C@@H]5O)[C@@]2(C)CC1=O	inactive					
COC(=O)[C@@]12OC[C@]34[C@H]([C@@H](O)[C@@H]1O)[C@@]1(C)CC(=O)C(OC(=O)[C@@H]5CC(F)(F)CN5)=C(C)[C@@H]1C[C@H]3OC(=O)[C@H](OC(=O)C=C(C)C)[C@@H]24	Active	Active	Active	Active	Active	Active
COC(=O)[C@@]12OC[C@]34[C@H]([C@@H](O)[C@@H]1O)[C@@]1(C)CC(=O)C(OC(=O)C[C@@H](N)C5CC5)=C(C)[C@@H]1C[C@H]3OC(=O)[C@H](OC(=O)C=C(C)C)[C@@H]24	inactive					

SMILES	inhibition [1]	inhibition [2]	inhibition [3]	inhibition [4]	inhibition [5]	inhibition [6]
COC(=O)[C@@]12OC[C@]34[C@H]([C@@H](O)[C@@H]1O)[C@@]1(C)CC(=O)C(OCC(=O)NCCC(=O)OC(C)(C)C)=C(C)[C@@H]1C[C@H]3OC(=O)[C@H](OC(=O)C=C(C)C)[C@@H]24	inactive					
COC(=O)[C@@]12OC[C@]34[C@H]([C@@H](O)[C@@H]1O)[C@@]1(C)CC(=O)C(OC(=O)CN)=C(C)[C@@H]1C[C@H]3OC(=O)[C@H](OC(=O)C=C(C)C)[C@@H]24	Active					
COC(=O)[C@@]12OC[C@]34[C@H]([C@@H](O)[C@@H]1O)[C@@]1(C)CC(=O)C(OC(=O)C[C@@H](N)C(F)(F)F)=C(C)[C@@H]1C[C@H]3OC(=O)[C@H](OC(=O)C=C(C)C)[C@@H]24	inactive					
COC(=O)[C@@]12OC[C@]34[C@H]([C@@H](O)[C@@H]1O)[C@@]1(C)CC(=O)C(OC(=O)C[C@H](C)NC(=O)OC(C)(C)C)=C(C)[C@@H]1C[C@H]3OC(=O)[C@H](OC(=O)C=C(C)C)[C@@H]24	inactive					
COC(=O)[C@@]12OC[C@]34[C@H]([C@@H](O)[C@@H]1O)[C@@]1(C)CC(=O)C(OC(=O)[C@H](C)NC(=O)OC(C)(C)C)=C(C)[C@@H]1C[C@H]3OC(=O)[C@H](OC(=O)C=C(C)C)[C@@H]24	Active					
COC(=O)[C@@]12OC[C@]34[C@H]([C@@H](O)[C@@H]1O)[C@@]1(C)CC(=O)C(OCC(=O)NC(C)(C)C)=C(C)[C@@H]1C[C@H]3OC(=O)[C@H](OC(=O)C=C(C)C)[C@@H]24	inactive					
COC(=O)[C@@]12OC[C@]34[C@H]([C@@H](O)[C@@H]1O)[C@@]1(C)CC(=O)C(OC(=O)[C@@H](N)C(C)C)=C(C)[C@@H]1C[C@H]3OC(=O)[C@H](OC(=O)C=C(C)C)[C@@H]24	Active					
COC(=O)[C@@]12OC[C@]34[C@H]([C@@H](O)[C@@H]1O)[C@@]1(C)CC(=O)C(OC(=O)[C@@H](C)N)=C(C)[C@@H]1C[C@H]3OC(=O)[C@H](OC(=O)C=C(C)C)[C@@H]24	Active	Active	Active	Active	Active	Active
COC(=O)[C@@]12OC[C@]34[C@H]([C@@H](O)[C@@H]1O)[C@@]1(C)CC(=O)C(OC(=O)[C@H](C)N)=C(C)[C@@H]1C[C@H]3OC(=O)[C@H](OC(=O)C=C(C)C)[C@@H]24	Active					
COC(=O)[C@@]12OC[C@]34[C@H]([C@@H](O)[C@@H]1O)[C@@]1(C)CC(=O)C(OC(=O)[C@H]5CCCN5)=C(C)[C@@H]1C[C@H]3OC(=O)[C@H](OC(=O)C=C(C)C)[C@@H]24	Active	Active	Active	Active	Active	Active
COC(=O)[C@@]12OC[C@]34[C@H]([C@@H](O)[C@@H]1O)[C@@]1(C)CC(=O)C(OC(=O)C[C@H](C)NS(C)(=O)=O)=C(C)[C@@H]1C[C@H]3OC(=O)[C@H](OC(=O)C=C(C)C)[C@@H]24	inactive					
COC(=O)[C@@]12OC[C@]34[C@H]([C@@H](O)[C@@H]1O)[C@@]1(C)CC(=O)C(OC(=O)[C@H](CC(C)C)NC(=O)OC(C)(C)C)=C(C)[C@@H]1C[C@H]3OC(=O)[C@H](OC(=O)C=C(C)C)[C@@H]24	inactive					
COC(=O)[C@@]12OC[C@]34[C@H]([C@@H](O)[C@@H]1O)[C@@]1(C)CC(=O)C(OC(=O)C[C@@H](N)C(C)C)=C(C)[C@@H]1C[C@H]3OC(=O)[C@H](OC(=O)C=C(C)C)[C@@H]24	inactive					
COC(=O)[C@@]12OC[C@]34[C@H]([C@@H](O)[C@@H]1O)[C@@]1(C)CC(=O)C(OCC(=O)NC(Cc5ccccc5)C(=O)OC(C)(C)C)=C(C)[C@@H]1C[C@H]3OC(=O)[C@H](OC(=O)C=C(C)C)[C@@H]24 (some centres undefined)	inactive					
COC(=O)[C@@]12OC[C@]34[C@H]([C@@H](O)[C@@H]1O)[C@@]1(C)CC(=O)C(OC(=O)[C@@H](NC(=O)OC(C)(C)C)C(C)C)=C(C)[C@@H]1C[C@H]3OC(=O)[C@H](OC(=O)C=C(C)C)[C@@H]24	inactive					
COC(=O)[C@@]12OC[C@]34[C@H]([C@@H](O)[C@@H]1O)[C@@]1(C)CC(=O)C(OCC(=O)C5CC5)=C(C)[C@@H]1C[C@H]3OC(=O)[C@H](OC(=O)C=C(C)C)[C@@H]24	inactive					
COC(=O)[C@@]12OC[C@]34[C@H]([C@@H](O)[C@@H]1O)[C@@]1(C)CC(=O)C(OC(=O)[C@@H](N)CC(C)C)=C(C)[C@@H]1C[C@H]3OC(=O)[C@H](OC(=O)C=C(C)C)[C@@H]24	Active					
